In patent publication US20060014709A1, “Drug or cosmetic” (priority 2002, published 2006):
Values joined by “and” are separate entries in the source; they are usually repeats but may differ in a detail not shown here. Identical values can stand only once. “Also recorded” adds a separate entry of the source.

Test system: male SD rats, obstruction-released kidney (glomerular lesions and tubulointerstitial lesions)
Assay: Obstruction release model after complete obstruction of unilateral ureter for 14 days (Example 2-1)
Type: in vivo
Parameters: key to Tubulointerstitial lesions: level of lesions (quality): summed lesion score: + = 1, ++ = 2, +++ = 3 points
Details: rat
Description: That is, the rat was laparotomized under anesthesia with ether and left ureter was ligated with 7-0 Nylon at the height of the margin of lower pole of kidney to close the abdomen. On the 14th day after obstruction, the obstruction was released and urinary passage was reconstructed using a cuff. Thus, after 14 days, the part of ligated obstructed ureter was resected, a polyethylene tube of 25 gages (manufactured by Nippon Sherwood) was used as a cuff and inserted into and retained at the lumen from the cut end of the lower normal ureter, then the cuff was also retained in the expanded upper ureter and each of them was ligated and fixed by 7-0 Nylon to reconstruct the urinary passage. At the same time, the right kidney at the opposite side was excised. After the release of the obstruction, body weight was measured, blood was drawn on the 2nd day, 5th day and 7th day from the release to measure serum creatinine, then the rat was killed under anesthesia and the left obstruction-released kidney was excised.
With regard to the excised kidney, there were carried out measurements of weight of the kidney, creatinine concentration mg/dl in plasma as an indicator of kidney function and pathological test for the kidney, and also leukocyte cells which infiltrate the obstruction-released kidney were immunopathologically studied with cell surface markers for ED1 macrophages, CD11b (ED8) positive macrophages and CD5 positive lymphocytes. A number of positive cells was expressed as a number of cells per glomerulus from measured numbers of positive cells in five glomeruli, and for a number in tubulointerstitial tissue, it was expressed by the total number of cells existing in five fields of 200×magnification. For macrophages, a number of CD11b positive cells existing in glomerulus was considered as a number of CD11b^+CD2^+ macrophages and a case of existing not less than one positive cell per glomerulus was considered as positive (+). In the tubulointerstitial tissue, a number of […] 60 CD11b positive cells was considered as positive (+), or a case of CD11b^−CD2^+ macrophages dominantly increasing. Scoring of evaluation of tubulointerstitial lesions was as follows: + gets 1-point as a light lesion; ++ gets 2-point as a moderate lesion; and +++ gets3-point as a severe lesion. For glomerular lesions, when a proportion of lesioned glomeruli was decreased to not more than 40%, and for tubulointerstitial lesions, when a score of the lesions was not more than 4, it was considered as improved.
For glomerular lesions, by counting glomeruli causing thickening of Bowman's capsule wall and glomerular hyalinosis, a proportion of glomeruli having lesions was calculated. For tubulointerstitial lesions, by qualifying hyperplasia of tubular basement membrane and interstitial fibrosis, levels of the lesions were represented.
An in vivo biological test was carried out for the γ-lactone derivative according to the present invention using this model. Bulk powder of a test compound was dissolved in sterile physiological saline together with gum arabic, and concentrations of the test compound and gum arabic were adjusted to 30 mg/mL and 5% respectively. The preparation was administered orally or subcutaneously injected at the dose of 30 mg/kg or 3 mg/kg every day. The administration was conducted for the total 21 days of the obstructed period for 14 days and after release of the obstruction for 7 days.
For test groups, a group administered single compound group, a group administered both compound group and a control group administered solution of gum arabic were set up and compared for renal functions and morphological evaluations, as well as numbers of ED1, CD5, CD11b positive cells by means of immunopathology.

[1] = 30 mg/kg subcutaneously every day for 21 days, one value per animal, 30 mg/kg

Structure (SMILES): O=C1CCC(F)(C(=O)OCc2ccccc2)O1 (stereo not shown) [compound (II-2), 2-fluoro-5-oxotetrahydrofuran-2-carboxylic acid benzyl ester]
- cases with increased regeneration-promoting CD11b^+CD2^+ macrophages to glomerular lesions (30 mg/kg subcutaneously): Regeneration-promoting macrophages were increased on both lesions
- cases with increased regeneration-promoting CD11b^−CD2^+ macrophages to tubulointerstitial lesions (30 mg/kg subcutaneously): Regeneration-promoting macrophages were increased on both lesions
- Regeneration CD11b^−CD2^+ macrophages to tubulointerstitial lesions, Determination: increase + (30 mg/kg subcutaneously every day for 21 days, one value per animal): + (a number of not more than 60 CD11b positive cells was considered as positive (+))
- Coincidence of two regeneration macrophages being positive [1]: Not coincident; also recorded: Coincident
- Glomerular lesions: proportion of lesioned glomeruli (%) [1]: 32% and 28% and 19% and 18%
- Number of regeneration CD11b^+CD2^+ macrophages to glomerular lesions: number of positive cells per glomerulus [1]: 0.7 cells per glomerulus and 1.7 cells per glomerulus and 2.3 cells per glomerulus and 1.4 cells per glomerulus
- Number of regeneration CD11b^−CD2^+ macrophages to tubulointerstitial lesions: number of positive cells (CD11b) in five fields of 200× magnification [1]: 33 cells in five fields of 200× m and 35 cells in five fields of 200× m and 27 cells in five fields of 200× m and 16 cells in five fields of 200× m
- Regeneration CD11b^+CD2^+ macrophages to glomerular lesions, Determination: increase = + [1]: + (a case of existing not less than one positive cell per glomerulus was considered as positive (+))
- Serum creatinine [1]: 2.0 mg/dl (2×) and 2.5 mg/dl and 2.3 mg/dl
- Tubulointerstitial lesions: level of lesions (quality) [1]: 4.5 (2×) and 6.5 (2×)
